We go through one molecule from PMC6588435 (Cell chemical biology, 2019).

Experiment [1] concerns PAS-resistant Mtb mutant folC (E153G). The format is cell-based, Mycobacterium tuberculosis.
The subject of experiment [2] is PAS-resistant Mtb mutant folC (I43T). The format is cell-based, Mycobacterium tuberculosis.
The subject of experiment [3] is PAS-resistant Mtb mutant thyX (−16 C->T). The experiment is classed as cell-based, Mycobacterium tuberculosis.
For another experiment, the system named is INCA-R Mtb strains. Nature of the experiment: microbe, parasite or virus in culture. The format is cell-based, Mycobacterium tuberculosis.
The subject of the next experiment is Mtb. Particulars: rising up to; ref Zhao et al., 2014; cited from earlier work.

The structures appear in SMILES notation. In brackets after ≈: the same amount, converted by molar mass.

As for `Nc1ccc(C(=O)O)c(O)c1` [PAS, para-aminosalicylic acid], in experiment [1], the “MIC, folC (E153G)” value came out at 32 µg/mL (≈ 209 µM). Moreover, in experiment [2], the “MIC, folC (I43T)” value stood at 32 µg/mL (≈ 209 µM). For the same molecule, the “MIC, thyX (−16 C->T)” value in experiment [3] is 16 µg/mL (≈ 104 µM). In addition, in the experiment with INCA-R Mtb strains, the “elevation of MIC in INCA-R strains (loss of potency)” value came to 32 fold. Besides, the MIC with INCA-R Mtb strains (Mycobacterium tuberculosis, read-out: MIC of INCA-R strains) worked out at 16 µg/mL. Further, the “MIC values of PAS-resistant mutants” value in the experiment with Mtb is “up to 8 μg/mL”.
